Assay [1] has as its target T1, human adenosine A3 receptor (Homo sapiens, UniProt P0DMS8).
T1 construct: expressed in transfected cells; host or cells: Chinese hamster ovary (CHO) cells containing CRE/SPAP/HYG reporter elements
T1 sequence (P0DMS8 1-318): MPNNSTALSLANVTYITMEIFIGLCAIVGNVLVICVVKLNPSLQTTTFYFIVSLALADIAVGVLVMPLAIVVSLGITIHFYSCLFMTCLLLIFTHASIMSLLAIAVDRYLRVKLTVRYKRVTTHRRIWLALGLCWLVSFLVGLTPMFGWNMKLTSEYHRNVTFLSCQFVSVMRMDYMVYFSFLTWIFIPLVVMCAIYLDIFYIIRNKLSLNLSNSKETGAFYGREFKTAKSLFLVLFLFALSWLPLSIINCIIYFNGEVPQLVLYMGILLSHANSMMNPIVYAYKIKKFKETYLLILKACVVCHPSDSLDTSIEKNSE
The experiment in a line: Reporter gene assay (CRE/SPAP) in CHO cells, agonist activity, adenosine A3. It counts as cell-based. Particulars: CHO cells stably transfected with human adenosine A3 receptor; inhibition of forskolin-stimulated SPAP production; potency relative to NECA=1. How it is done: (§1) Reporter Gene Experiments
(§2) Agonist activity was measured in Chinese hamster ovary (CHO) cells containing the CRE/SPAP/HYG (CRE=cyclic AMP response element; HYG=hygromycin resistance; SPAP=secreted placental alkaline phosphatase) reporter gene elements, which upon stimulation of cAMP levels produced SPAP. A cell line was used, which was stably transfected with either the human adenosine Al receptor or the human adenosine A3 receptor in addition to the above elements. Cells were plated out in 96-well plates in culture medium and incubated at 37° C. for 1 hour. For measurement of potency, agonists were added to the appropriate wells at a concentration range of approximately 10^−10-10^−5M. 15 Min later, cAMP levels were stimulated by addition of a maximal concentration of forskolin. All cells were then incubated for a further 5 hours at 37° C., and cooled to room temperature, after which a substrate for the phosphatase (para-nitrophenol phosphate, pNPP), which is converted by SPAP to a coloured reagent) was then added and the 96-well plates were read in a plate reader. From these readings, the concentration-dependence of the inhibition by the agonist for forskolin-stimulated SPAP production can be calculated. One of the agonists tested on each 96-well plate was the standard non-selective agonist, N-ethylcarboxamidoadenosine (NECA), and the potency of all test agonists is expressed relative to that of the NECA standard.
(§3) (ECR=equipotent concentration ratio relative to NECA=1)

In assay [2] the target is T2, human adenosine A1 receptor (Homo sapiens, UniProt P30542).
T2 construct: expressed in transfected cells; host or cells: Chinese hamster ovary (CHO) cells containing CRE/SPAP/HYG reporter elements
T2 sequence (P30542 1-326): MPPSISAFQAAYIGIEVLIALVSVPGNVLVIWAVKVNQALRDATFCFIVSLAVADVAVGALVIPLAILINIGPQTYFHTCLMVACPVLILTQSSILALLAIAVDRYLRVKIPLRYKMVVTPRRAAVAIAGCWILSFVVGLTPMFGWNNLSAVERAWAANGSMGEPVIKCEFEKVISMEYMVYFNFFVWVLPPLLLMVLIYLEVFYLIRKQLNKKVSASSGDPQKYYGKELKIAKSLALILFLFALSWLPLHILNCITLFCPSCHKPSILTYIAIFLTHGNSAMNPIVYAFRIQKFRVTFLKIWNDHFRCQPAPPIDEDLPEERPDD
The experiment in a line: Reporter gene assay (CRE/SPAP) in CHO cells, agonist activity, adenosine A1. It counts as cell-based. As to conditions: CHO cells stably transfected with human adenosine A1 receptor; inhibition of forskolin-stimulated SPAP production; potency relative to NECA=1. How it is done:
as §1
as §2, with “For measurement of potency, agonists were added to the appropriate wells at a concentration range of approximately 10^−10-10^−5M.” left out, “calculated.” for “calculated. One of the agonists tested on each 96-well plate was the standard non-selective agonist, N-ethylcarboxamidoadenosine (NECA), and the potency of all test agonists is expressed relative to that of the NECA standard.”
as §3
A general note: Reporter assays use an easily measured gene product as a stand-in for the process of interest.

Take `O=S1(=O)CCC(Nc2nc(Cl)nc3c2ncn3[C@@H]2O[C@H](CF)[C@@H](O)[C@H]2O)CC1` [Example 15, 2-Chloro-5′-deoxy-N-(1,1-dioxo-hexahydro-1δ6-thiopyran-4-yl)-5′-fluoro-adenosine]: the “A3 Receptor, Reporter Gene Assay ECR (equipotent concentration ratio relative to NECA=1)” value in assay [1] was >435.00. Further, in assay [2], the “A1 Receptor, Reporter Gene Assay ECR (equipotent concentration ratio relative to NECA=1)” value was 9.16.
On to `CNS(=O)(=O)CCNc1ncnc2c1ncn2[C@@H]1O[C@H](CF)[C@H](O)[C@H]1O` [Example 18, 2-[9-(5S-Fluoromethyl-3R,4R-dihydroxy-tetrahydro-furan-2R-yl)-9H-purin-6-ylamino]-ethanesulfonic acid methylamide], for which the “A3 Receptor, Reporter Gene Assay ECR (equipotent concentration ratio relative to NECA=1)” value in assay [1] is >353.00. Further, the “A1 Receptor, Reporter Gene Assay ECR (equipotent concentration ratio relative to NECA=1)” value in assay [2] was 0.71.
For the compound `O[C@@H]1[C@H](O)[C@@H](CF)O[C@H]1n1cnc2c(NC3CC4CCC3C4)nc(Cl)nc21` (stereo partly drawn) [Example 8, N-(endo-Bicyclo[2.2.1]hept-2-yl)-2-chloro-5′-deoxy-5′-fluoro-adenosine], in assay [1], the “A3 Receptor, Reporter Gene Assay ECR (equipotent concentration ratio relative to NECA=1)” value is recorded as >91.00.
Regarding `O[C@@H]1[C@H](O)[C@@H](CF)O[C@H]1n1cnc2c(NC3CC4CCC3C4)nc(Cl)nc21` (stereo partly drawn) [Example 25, N-(exo-Bicyclo[2.2.1]hept-2-yl)-2-chloro-5′-deoxy-5′-fluoro-adenosine], the “A3 Receptor, Reporter Gene Assay ECR (equipotent concentration ratio relative to NECA=1)” value in assay [1] is on record as >151.00.
For the compound `O[C@@H]1[C@H](O)[C@@H](CF)O[C@H]1n1cnc2c(NC3CCOCC3)nc(Cl)nc21` [Example 3, 2-Chloro-5′-deoxy-5′-fluoro-N-(tetrahydro-pyran-4-yl)-adenosine], the “A3 Receptor, Reporter Gene Assay ECR (equipotent concentration ratio relative to NECA=1)” value in assay [1] is reported as >139.00. Further, the “A1 Receptor, Reporter Gene Assay ECR (equipotent concentration ratio relative to NECA=1)” value in assay [2] is reported as 2.41.
Take `CCCCOC(=O)N1CCC(Nc2nc(Cl)nc3c2ncn3[C@@H]2O[C@H](CF)[C@@H](O)[C@H]2O)CC1` [Example 26, 4-[2-Chloro-9-(5S-fluoromethyl-3R,4S-dihydroxy-tetrahydro-furan-2R-yl)-9H-purin-6-ylamino]-piperidine-1-carboxylic acid butyl ester]: the “A3 Receptor, Reporter Gene Assay ECR (equipotent concentration ratio relative to NECA=1)” value in assay [1] was >233.00. The “A1 Receptor, Reporter Gene Assay ECR (equipotent concentration ratio relative to NECA=1)” value in assay [2] stood at 4.50.
For `CC(C)(C)CNc1nc(Cl)nc2c1ncn2[C@@H]1O[C@H](CF)[C@@H](O)[C@H]1O` [Example 24, 2-Chloro-5′-deoxy-N-(2,2-dimethyl-propyl)-5′-fluoro-adenosine] the same measures were >233.00 and 7.83.
Consider `OCC(O)CNc1nc(Cl)nc2c1ncn2[C@@H]1O[C@H](CF)[C@@H](O)[C@H]1O` (some centres unmarked) [Example 16, 2-Chloro-5′-deoxy-N-(2,3-dihydroxy-propyl)-5′-fluoro-adenosine], for which the “A3 Receptor, Reporter Gene Assay ECR (equipotent concentration ratio relative to NECA=1)” value in assay [1] was >240.00. In assay [2], the “A1 Receptor, Reporter Gene Assay ECR (equipotent concentration ratio relative to NECA=1)” value is recorded as 7.29.
With `O=S1(=O)CCC(Nc2ncnc3c2ncn3[C@@H]2O[C@H](CF)[C@@H](O)[C@H]2O)CC1` [Example 27], in assay [1], the “A3 Receptor, Reporter Gene Assay ECR (equipotent concentration ratio relative to NECA=1)” value is recorded as >162.00.
With `O[C@@H]1[C@H](O)[C@@H](CF)O[C@H]1n1cnc2c(N[C@H]3CCC[C@@H]3O)ncnc21` [Example 13, 5′-Deoxy-5′-fluoro-N-(2S-hydroxy-cyclopent-(S)-yl)-adenosine], in assay [1], the “A3 Receptor, Reporter Gene Assay ECR (equipotent concentration ratio relative to NECA=1)” value is >152.00.
With `CC(C)(C)CNc1ncnc2c1ncn2[C@@H]1O[C@H](CF)[C@@H](O)[C@H]1O` [Example 19, 5′-Deoxy-5′-fluoro-N-(2,2-dimethyl-propyl)-adenosine], the “A3 Receptor, Reporter Gene Assay ECR (equipotent concentration ratio relative to NECA=1)” value in assay [1] is reported as >353.00. Moreover, the “A1 Receptor, Reporter Gene Assay ECR (equipotent concentration ratio relative to NECA=1)” value in assay [2] turned out to be 3.51.
For `O[C@@H]1[C@H](O)[C@@H](CF)O[C@H]1n1cnc2c(N[C@@H]3CCC[C@H]3F)nc(Cl)nc21` [Example 6, 2-Chloro-5-deoxy-5′-fluoro-N-(2R-fluoro-cyclopent-(R)-yl)-adenosine], in assay [1], the “A3 Receptor, Reporter Gene Assay ECR (equipotent concentration ratio relative to NECA=1)” value is on record as >156.00.
`CC(=O)N1CCC(Nc2nc(Cl)nc3c2ncn3[C@@H]2O[C@H](CF)[C@@H](O)[C@H]2O)CC1` [Example 10, 1-{4-[2-Chloro-9-(5S-fluoromethyl-3R,4S-dihydrox-tetrahydro-furan-2R-yl)-9H-purin-6-ylamino]-piperidin-1-yl}-ethanone]: in assay [1], the “A3 Receptor, Reporter Gene Assay ECR (equipotent concentration ratio relative to NECA=1)” value was >162.00. Also, the “A1 Receptor, Reporter Gene Assay ECR (equipotent concentration ratio relative to NECA=1)” value in assay [2] came out at 66.80.
Taken in the same sequence, the figures for `CCOC(=O)N1CCC(Nc2nc(Cl)nc3c2ncn3[C@@H]2O[C@H](CF)[C@@H](O)[C@H]2O)CC1` [Example 9, 4-[2-Chloro-9-(5S-fluoromethyl-3R,4S-dihydroxy-tetrahydro-furan-2R-yl)-9H-purin-6-ylamino]-piperidine-1-carboxylic acid ethyl ester] were >129.00 and 3.00.
In the case of `O[C@@H]1[C@H](O)[C@@H](CF)O[C@H]1n1cnc2c(Nc3ccc(Cl)cc3F)ncnc21` [Example 28, N-(4-Chloro-2-fluoro-phenyl)-5′-deoxy-5′-fluoro-adenosine], in assay [1], the “A3 Receptor, Reporter Gene Assay ECR (equipotent concentration ratio relative to NECA=1)” value is listed as >170.00. In assay [2], the “A1 Receptor, Reporter Gene Assay ECR (equipotent concentration ratio relative to NECA=1)” value was found to be 2.05.
Regarding `CCOC(=O)N1CCC(Nc2ncnc3c2ncn3[C@@H]2O[C@H](CF)[C@@H](O)[C@H]2O)CC1` [Example 14, 4-[9-(5S-Fluoromethyl-3R,4S-dihydroxy-tetrahydro-furan-2R-yl)-9H-purin-6-ylamino]-piperidine-1-carboxylic acid ethyl ester], in assay [1], the “A3 Receptor, Reporter Gene Assay ECR (equipotent concentration ratio relative to NECA=1)” value is recorded as >435.00. In addition, in assay [2], the “A1 Receptor, Reporter Gene Assay ECR (equipotent concentration ratio relative to NECA=1)” value was 1.68.
Taken in the same sequence, the figures for `O[C@@H]1[C@H](O)[C@@H](CF)O[C@H]1n1cnc2c(NC3CCSCC3)ncnc21` [Example 21, 5′-Deoxy-5′-fluoro-N-(tetrahydro-thiopyran-4-yl)-adenosine] were >353.00 and 1.64.
With `O[C@@H]1[C@H](O)[C@@H](C(F)(F)F)O[C@H]1n1cnc2c(NC3CCOCC3)nc(Cl)nc21` [Example 4, (2R,3 R,4S,5S)-2-[2-Chloro-6-(tetrahydro-pyran-4-ylamino)-purin-9-yl]-5-trifluoromethyl-tetrahydro-furan-3,4-diol], the “A1 Receptor, Reporter Gene Assay ECR (equipotent concentration ratio relative to NECA=1)” value in assay [2] is 190.10.
As to `O[C@@H]1[C@H](O)[C@@H](CF)O[C@H]1n1cnc2c(N[C@H]3CCC[C@@H]3O)nc(Cl)nc21` [Example 7, 2-Chloro-5′-deoxy-5′-fluoro-N-(2S-hydroxy-cyclopent-(S)-yl)adenosine], the “A3 Receptor, Reporter Gene Assay ECR (equipotent concentration ratio relative to NECA=1)” value in assay [1] is on record as >91.00.
On to `O[C@@H]1[C@H](O)[C@@H](CF)O[C@H]1n1cnc2c(NC3CC4CCC3C4)ncnc21` (stereo partly drawn) [Example 11, N-(endo-Bicyclo[2.2.1]hept-2-yl)-5′-deoxy-5′-fluoro-adenosine], for which, in assay [1], the “A3 Receptor, Reporter Gene Assay ECR (equipotent concentration ratio relative to NECA=1)” value is >152.00.

For the origin of these results see patent US6455510B1, “Chemical Compounds” (SmithKline Beecham Corporation, priority 1997, dated 2002).
